Test results: US20260200926A1, “TREM2 MODULATORS” (Muna Therapeutics ApS, priority 2022, published 2026)

Target: T1, Human TREM2 (Homo sapiens, UniProt Q9NZC2)
T1 construct: expressed in transfected cells
Test: Human TREM2 activity: cellular phosphorylation of Syk (AlphaLISA SureFire Ultra p-SYK) in HEK293/DAP12+TREM2 stable cell line
Assay type: cell-based
Conditions: for Emax: HEK293, maximal response relative to reference agonist example 1B (remaining examples), read-out: Emax; for EC50: phospho-Syk AlphaLISA signal, HEK293/DAP12+TREM2 cells, concentration giving 50% of maximal response, read-out: EC50
How it was run: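 The read-out was p-Syk (Tyr525/526), measured by AlphaLISA in lysates of a stable HEK293/DAP12+TREM2 clone. Cells (10,000/well, plated the day before) received compound for 30 min at 37 °C. Dosing used 8 points in quadruplicate, top 100 μM with 1:6 dilution, 0.5% final DMSO.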

T1 sequence (Q9NZC2 19-230): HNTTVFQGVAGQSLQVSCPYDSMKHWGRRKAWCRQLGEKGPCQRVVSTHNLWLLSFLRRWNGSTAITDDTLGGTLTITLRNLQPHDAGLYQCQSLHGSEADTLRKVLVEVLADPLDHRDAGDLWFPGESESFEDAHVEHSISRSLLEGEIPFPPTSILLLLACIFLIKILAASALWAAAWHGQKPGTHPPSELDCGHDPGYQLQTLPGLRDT
T1 sequence (O43914 22-113 partner): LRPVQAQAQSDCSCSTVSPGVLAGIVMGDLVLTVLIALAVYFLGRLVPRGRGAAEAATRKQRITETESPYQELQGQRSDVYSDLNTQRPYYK

Row | Emax [%] | EC50 [nM] | Compound
1 | < 75 | 10 to 100 | Cc1nc2c(-c3ccc(Cl)cc3F)nc(N3CC[C@@H](Oc4cnn(C)c4)C3)nc2c(=O)n1C [Example 64, (R)-8-(4-chloro-2-fluorophenyl)-2,3-dimethyl-6-(3-((1-methyl-1H-pyrazol-4-yl)oxy)pyrrolidin-1-yl)pyrimido[5,4-d]pyrimidin-4 (3H)-one]
2 | < 75 | 10 to 100 | COCCn1cc(C2CN(c3nc(-c4ccc(Cl)cc4F)c4nc(C)n(C)c(=O)c4n3)CCO2)cn1 (stereo not shown) [Example 69, 8-(4-chloro-2-fluorophenyl)-6-(2-(1-(2-methoxyethyl)-1H-pyrazol-4-yl)morpholino)-2,3-dimethylpyrimido[5,4-d]pyrimidin-4 (3H)-one]
3 | < 75 | > 1000 | Cc1nc2c(-c3ccc(F)cc3Cl)nc(N3CCOC(c4cnn(C)c4)C3)nc2c(=O)n1C (stereo not shown) [Example 70, 8-(2-chloro-4-fluorophenyl)-2,3-dimethyl-6-(2-(1-methyl-1H-pyrazol-4-yl)morpholino)pyrimido[5,4-d]pyrimidin-4 (3H)-one]
4 | 75 to 110 | 100 to 1000 | Cc1nc2c(C3CC4(C3)CC(F)(F)C4)nc(N3CCOC(c4cnn(C)c4)C3)nc2c(=O)n1C (stereo not shown) [Example 72, 8-(6,6-difluorospiro[3.3]heptan-2-yl)-2,3-dimethyl-6-(2-(1-methyl-1H-pyrazol-4-yl)morpholino)pyrimido[5,4-d]pyrimidin-4 (3H)-one]
5 | 75 to 110 | 100 to 1000 | Cc1nc2c(-c3ccc(Cl)cc3F)nc(N3CCOC(c4cn(C)nn4)C3)nc2c(=O)n1C (stereo not shown) [Example 73, 8-(4-chloro-2-fluorophenyl)-2,3-dimethyl-6-(2-(1-methyl-1H-1,2,3-triazol-4-yl)morpholino)pyrimido[5,4-d]pyrimidin-4 (3H)-one]
6 | < 75 | > 1000 | Cc1nc2c(-c3ccc(Cl)cc3F)nc(N3CC[C@H](Oc4cnn(C)c4)C3)nc2c(=O)n1C [Example 74, (S)-8-(4-chloro-2-fluorophenyl)-2,3-dimethyl-6-(3-((1-methyl-1H-pyrazol-4-yl)oxy)pyrrolidin-1-yl)pyrimido[5,4-d]pyrimidin-4 (3H)-one]
7 | < 75 | 100 to 1000 | Cc1nc2c(-c3ccc(Cl)cc3F)nc(N3CCC[C@H](Oc4cnn(C)c4)C3)nc2c(=O)n1C [Example 75, (S)-8-(4-chloro-2-fluorophenyl)-2,3-dimethyl-6-(3-((1-methyl-1H-pyrazol-4-yl)oxy)piperidin-1-yl)pyrimido[5,4-d]pyrimidin-4 (3H)-one]
8 | 75 to 110 | 100 to 1000 | Cc1nc2c(-c3ccc(Cl)cc3F)nc(N3CCC[C@@H](Oc4cnn(C)c4)C3)nc2c(=O)n1C [Example 76, (R)-8-(4-chloro-2-fluorophenyl)-2,3-dimethyl-6-(3-((1-methyl-1H-pyrazol-4-yl)oxy)piperidin-1-yl)pyrimido[5,4-d]pyrimidin-4 (3H)-one]
9 | 75 to 110 | > 1000 | Cc1nc2c(-c3ccc(Cl)cc3F)nc(N3CCC(Oc4cnn(C)c4)CC3)nc2c(=O)n1C [Example 77, 8-(4-chloro-2-fluorophenyl)-2,3-dimethyl-6-(4-((1-methyl-1H-pyrazol-4-yl)oxy)piperidin-1-yl)pyrimido[5,4-d]pyrimidin-4 (3H)-one]
10 | 75 to 110 | 100 to 1000 | Cc1nc2c(-c3ccc(Cl)cc3F)nc(N3CCCC(N4CCOCC4)C3)nc2c(=O)n1C (stereo not shown) [Example 78, 8-(4-chloro-2-fluorophenyl)-2,3-dimethyl-6-(3-morpholinopiperidin-1-yl)pyrimido[5,4-d]pyrimidin-4 (3H)-one]
11 | < 75 | > 1000 | COC1CN(C2CCCN(c3nc(-c4ccc(Cl)cc4F)c4nc(C)n(C)c(=O)c4n3)C2)C1 (stereo not shown) [Example 79, 8-(4-chloro-2-fluorophenyl)-6-(3-(3-methoxyazetidin-1-yl)piperidin-1-yl)-2,3-dimethylpyrimido[5,4-d]pyrimidin-4 (3H)-one]
